# Data: EP0060659A1, “Pharmaceutical composition for tumour treatment and process for preparing it” (NATIONAL FOUNDATION FOR CANCER RESEARCH, INC., priority 1981, dated 1982)
# Where “and” joins values, the source holds several entries; their conditions need not be identical. Equal entries are not always repeated.
# Key:
# [1] = system: Ehrlich ascites cells; assay: Ehrlich ascites tumour in mice, test substance in drinking water (Example 2); type: in vivo, adult female white Swiss mice; design: average weight of the tumours / weight of the excised tissues (tumour): unit not given here
# Protocol: 30 adult female white Swiss mice were inoculated behind the right foreleg on the ventral side with about 5 x 10^6 Ehrlich ascites cells in 0.2 ml of physiological saline. The mice were randomized and divided into three groups, each group containing 10 animals. All animals received water to drink during days 1 and 2. On day 3, the water of one group (Group B) was replaced by a 0.05 molar solution of glyoxal whilst the water of another group (Group C) was replaced by a 0.05 molar solution of a glyoxal-cysteine adduct prepared essentially as described in Example 1. The third, or control, group (Group A) continued to receive water. All groups could drink ad libidum.
# No weight loss was observed.
# All animals were narcotized and their tumours excised and cleaned from the surrounding tissues.
# In the cases where the tumour which developed was slightly ascitic, the fluid was not weighed and this is believed to account for the rather lower weight of these tumours.
# [2] = system: tumour cells; conditions: cited from earlier work
SMILES,"toxic symptoms or loss of weight ([1]; after 7 days, 0.05 molar solution as drinking water)","size or form of the tumour on visual inspection ([1]; after 7 days, compared with control group)","inhibition over the control ([1]; from average tumour weights, 0.05 molar solution as drinking water)","average weight of the tumours ([1]; group of 10 mice, 0.05 molar solution as drinking water from day 3, control group average 1200)","weight of the excised tissues (tumour) ([1]; individual animals, 0.05 molar solution as drinking water from day 3, ad libitum, excised after 7 days, * = slightly ascitic tumour, fluid not weighed)",toxicity to cells of normal tissues [2]
O=CC=O [glyoxal],no toxic symptoms or loss of weight,No significant decrease,about 18%,985,800 and 530 and 190 and 90* and 1270 and 330 and 1220 and 1700 and 2740 and 980,–
CC(O)C=CC=O (stereo not drawn) [4-hydroxypentenal],–,–,–,–,–,only slightly toxic
